Results as given in US9814709B2, “Bruton's tyrosine kinase inhibitor” (HEFEI INSTITUTES OF PHYSICAL SCIENCE, CHINESE ACADEMY OF …, priority 2014, dated 2017).
Read-outs that look alike come from different tables or passages of the source.

Columns and labels:
[1] = test system: SD rat adjuvant arthritis (AA) model; assay: SD rat adjuvant arthritis (AA) model, arthritis index; assay type: in vivo
Protocol: In this example, SD rat adjuvant arthritis (AA) model (purchased from the Experimental Animal Center of Anhui Province) was used. PCI-32765 and methotrexate (MTX) were used as positive control (both purchased from Shanghai Chemexpress). The therapeutic effect of Compound 1 on AA rats was studied via the combination of in vivo and in vitro administration. 10 mg/nal of complete Freund's adjuvant (CFA, purchased from Shanghai Chemexpress) was mixed well, and 0.1 ml of CFA was intracutaneously injected into each rat at right posterior plantar to induce inflammation. The normal group was injected with saline via the same method. On the 17th day, the successful modeling male SD rats were randomly divided into 7 groups with 10 rats in each group, namely the model group, the small/medium/large dose of Compound 1 group (12.5, 25, 50 mg/kg/per administration, intraperitoneal injection, one administration per day for 16 days), the Compound 19 group (25 mg/kg/per administration, intraperitoneal injection, one administration per day for 16 days), the positive control PCI-32765 group (25 mg/kg/per administration, intraperitoneal injection, one administration per day for 16 days), the MTX group (0.5 mg/kg, intragastrical, one administration every 3 days, totally 6 times). The rats in the model group were intraperitoneally injected with the same amount of DMSO solution.

[2] = test system: mouse TEL-JAK1-BaF3 cells (stably expressing TEL-JAK1 activated kinase); assay: Cell growth, Cell Titer-Glo; assay type: cell-based; settings: TEL-JAK1-BaF3, 72 hrs, read-out: Half inhibitory concentration IC50
Text: (§1) We further assessed the selectivity of Compound 1 to inhibit the proliferation of cancer cells, by testing the effect of Btk inhibitor on the growth of cancer cells. In the example, we used B-lymphoma cell Ramos, cervical cancer cells HeLa, prostate cancer cells DU145, RV-1 and C4-2, colon cancer cells HCT116, blood cancer cells K562, B-cell lymphoma cells U2932, diffuse large B-cell lymphoma cells OCI-LY10, diffuse histiocytic lymphoma cells SU-DHL-2, diffuse large B-cell lymphoma cells TMD8, human non-small cell lung cancer cells H1975 (expressing EGFR L858R/T790M double mutant gene), human lung adenocarcinoma cells A549 (expressing wild-type EGFR gene), human non-small cell lung cancer cells H460 (expressing wild-type EGFR gene), mantel cell lymphoma (MCL) cells Z-138, EB virus infected human peripheral lymphocyte cells JVM-2, MCL cells REC-1, leukemia cells AML-3, acute promyelocytic leukemia cell line NB-4(Lu+), MDS-RAEB (myelodysplastic syndrome-excessive blasts) cell line SKM-1 human leukemia cell Nomo-1, human B-cell leukemia cell line NALM6, human leukocyte leukemia cells HEL, human T-cell lymphoma cells PF-382, acute myelocytic leukemia (AML) cell line MOLM14, AML cell line MOLM13, human Burkitt's lymphoma cells Namalwa, mouse pro-B cells BaF3, all of where were purchased from ATCC. Also used were mouse TEL-EGFR-BaF3 (stably expressing TEL-EGFR activated kinase), mouse TEL-EGFR/T790-BaF3 cells (stably expressing TEL-EGFR-T790M activated mutant kinase), mouse TEL-EGFR/L858R-BaF3 cells (stably expressing TEL-EGFR-L858R activated mutant kinase), mouse TEL-EGFR/T790/L858R-BaF3 (stably expressing TEL-EGFR-T790M/L858R activated mutant kinase), mouse TEL-BMX-BaF3 cells (stably expressing TEL-BMX activated kinase), mouse TEL-JAK1-BaF3 cells (stably expressing TEL-JAK1 activated kinase), mouse TEL-JAK2-BaF3 cells (stably expressing TEL-JAK2 activated kinase), mouse TEL-JAK3-BaF3 cells (stably expressing TEL-JAK3 activated kinase), where were all established by our laboratory via the following method: the kinase domain sequences of human EGFR, BMX, JAK1, JAK2, JAK3 were amplified respectively by PCR, and these kinase were inserted into the MSCV-Puro vectors with N-terminal TEL segment (Clontech); if there was a mutation, the mutation of the corresponding site was conducted by Site-Directed Mutagenesis kit (Stratagene); the resultants were stably transfected into mouse BaF3 cells by the means of retrovirus, and the IL-3 growth factors were removed, and eventually the EGFR, BMX, JAK1, JAK2, JAK3-transferred protein dependent cell lines were obtained.
(§2) In the example, different concentrations (0.000508 μM, 0.00152 μM, 0.00457 μM, 0.0137 μM, 0.0411 μM, 0.123 μM, 0.370 μM, 1.11 μM, 3.33 μM, 10 μM) of Compound 1 and Compound 19 were added into above cells, and were incubated for 72 hrs. The number of viable cells was determined by quantitating ATP in viable cells using Cell Titer-Glo® (Promega, U.S.) chemiluminescence cell viability assay kit.

[3] = test system: mouse TEL-JAK3-BaF3 cells (stably expressing TEL-JAK3 activated kinase); assay: Cell growth, Cell Titer-Glo; assay type: cell-based; settings: TEL-JAK3-BaF3, 72 hrs, read-out: Half inhibitory concentration IC50
Text: as §1, §2

mouse pro-B cells BaF3 = assay: Cell growth, Cell Titer-Glo; assay type: cell-based; settings: BaF3, 72 hrs (listed twice in Table 3), read-out: Half inhibitory concentration IC50
Text: as §1, §2

[4] = test system: mouse TEL-EGFR/T790-BaF3 cells (stably expressing TEL-EGFR-T790M activated mutant kinase); assay: Cell growth, Cell Titer-Glo; assay type: cell-based; settings: TEL-EGFR/T790-BaF3, 72 hrs, read-out: Half inhibitory concentration IC50
Text: as §1, §2

[5] = test system: mouse TEL-EGFR/L858R-BaF3 cells (stably expressing TEL-EGFR-L858R activated mutant kinase); assay: Cell growth, Cell Titer-Glo; assay type: cell-based; settings: TEL-EGFR/L858R-BaF3, 72 hrs, read-out: Half inhibitory concentration IC50
Text: as §1, §2

[6] = test system: mouse TEL-EGFR-BaF3 (stably expressing TEL-EGFR activated kinase); assay: Cell growth, Cell Titer-Glo; assay type: cell-based; settings: TEL-EGFR-BaF3, 72 hrs, read-out: Half inhibitory concentration IC50
Text: as §1, §2

[7] = test system: mouse TEL-JAK2-BaF3 cells (stably expressing TEL-JAK2 activated kinase); assay: Cell growth, Cell Titer-Glo; assay type: cell-based; settings: TEL-JAK2-BaF3, 72 hrs, read-out: Half inhibitory concentration IC50
Text: as §1, §2

[8] = test system: mouse TEL-BMX-BaF3 cells (stably expressing TEL-BMX activated kinase); assay: Cell growth, Cell Titer-Glo; assay type: cell-based; settings: TEL-BMX-BaF3, 72 hrs, read-out: Half inhibitory concentration IC50
Text: as §1, §2

[9] = test system: mouse TEL-EGFR/T790/L858R-BaF3 (stably expressing TEL-EGFR-T790M/L858R activated mutant kinase); assay: Cell growth, Cell Titer-Glo; assay type: cell-based; settings: TEL-EGFR/T790/L858R-BaF3, 72 hrs, read-out: Half inhibitory concentration IC50
Text: as §1, §2

Row | IC50 [2] [nM] | IC50 [3] [nM] | IC50 (mouse pro-B cells BaF3; Mus musculus, BaF3, 72 h) [µM] | IC50 [4] [nM] | IC50 [5] [nM] | IC50 [6] [nM] | IC50 [7] [nM] | IC50 [8] [nM] | IC50 [9] [nM] | IC50 (mouse pro-B cells BaF3) [µM] | Structure (SMILES) | effect on the rat arthritis index ([1]; 25 mg/kg intraperitoneal once per day for 16 days) | effect on arthritis index of rats compared with the model group ([1]; 12.5 mg/kg intraperitoneal once per day, starting from day 21) | effect on arthritis index of rats ([1]; 12.5 mg/kg intraperitoneal once per day, starting from day 24)
1 | > 10000 | > 10000 | > 10 | > 10000 | > 10000 | > 10000 | > 10000 | > 10000 | > 10000 |  | CCC(=O)Nc1cc(-n2c(=O)ccc3cnc4ccc(-n5cccn5)cc4c32)ccc1C [Compound 19, N-(2-methyl-5-(2-oxo-9-(1H-pyrazol-1-yl)benzo[H][1,6]naphthyridin-1(2H)-yl)phenyl) propionamide] | little effect |  | 
2 | 1600 | 2300 | 4.2 | 918 | 292 | 2660 | 2100 | 18 | 1590 | 4.28 | C=CC(=O)Nc1cc(-n2c(=O)ccc3cnc4ccc(-n5cccn5)cc4c32)ccc1C [Compound 1, N-(2-methyl-5-(2-oxo-9-(1H-pyrazol-1-yl)benzo[H][1,6]naphthyridin-1(2H)-yl)phenyl)acrylamide] |  | significantly reduced | significantly reduce
